One molecule from PMC10455244, “Alpha-Mangostin: A Potent Inhibitor of TRPV3 and Pro-Inflammatory Cytokine Secretion in Keratinocytes” (International Journal of Molecular Sciences, 2023) can be followed below.

For the experiment, the target named is T1, TRPV3 (G573C) (Homo sapiens, UniProt Q8NET8, G573C).
T1 construct: host or cells: HEK 293T (transient transfection, pEGFP-N1 co-transfected as a marker)
T1 sequence (Q8NET8 1-790 G573C): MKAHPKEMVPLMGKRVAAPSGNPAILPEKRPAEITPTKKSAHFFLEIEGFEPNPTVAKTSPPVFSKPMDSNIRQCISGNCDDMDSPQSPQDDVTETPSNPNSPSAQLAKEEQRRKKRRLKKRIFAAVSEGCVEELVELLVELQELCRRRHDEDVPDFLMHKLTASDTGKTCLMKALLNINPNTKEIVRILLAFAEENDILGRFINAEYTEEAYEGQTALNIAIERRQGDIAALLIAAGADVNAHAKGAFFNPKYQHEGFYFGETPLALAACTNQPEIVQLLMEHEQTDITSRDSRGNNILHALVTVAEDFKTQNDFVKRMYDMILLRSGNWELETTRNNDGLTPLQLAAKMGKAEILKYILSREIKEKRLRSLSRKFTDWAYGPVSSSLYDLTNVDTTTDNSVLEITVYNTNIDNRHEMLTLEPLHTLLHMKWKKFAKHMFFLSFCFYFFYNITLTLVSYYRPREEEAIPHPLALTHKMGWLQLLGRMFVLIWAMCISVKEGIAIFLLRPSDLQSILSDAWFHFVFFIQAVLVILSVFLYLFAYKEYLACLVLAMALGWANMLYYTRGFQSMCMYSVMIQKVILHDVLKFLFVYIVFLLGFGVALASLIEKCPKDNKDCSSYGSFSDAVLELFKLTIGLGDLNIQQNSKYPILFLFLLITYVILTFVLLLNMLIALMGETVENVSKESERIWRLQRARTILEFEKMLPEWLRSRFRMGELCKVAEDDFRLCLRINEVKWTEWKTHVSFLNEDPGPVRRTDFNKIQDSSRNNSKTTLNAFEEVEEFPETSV
Put plainly: Fura-2 calcium imaging, spontaneous Ca2+ increase in TRPV3 (G573C)-expressing HEK 293T cells. The experiment is classed as cell-based. The conditions noted are these: 1 µM. The source says: Figure 4 Alpha-mangostin inhibited the activity of hyperactive TRPV3 mutant channels and rescued mutation-induced cell death. (A) Alpha-mangostin inhibited the channel current in representative TRPV3 (G573S)- and TRPV3 (G573C)-expressing HEK 293T cells. […] Currents were normalized to the response at −100 mV before adding alpha-mangostin. (C) Alpha-mangostin inhibited TRPV3-mediated intracellular calcium increase in TRPV3 (G573S)-expressing HEK 293T cells. […] The bar graph on the right summarizes the change in the intracellular calcium rise inhibited by alpha-mangostin. […]
Subsequently, the effects of alpha-mangostin on the activities of the mutated channels were further evaluated using intracellular calcium measurements.
Fura-2 AM (Thermo Fisher Scientific) was utilized as a fluorescent indicator to measure calcium signal, as described previously. […] To measure the cytosolic Ca^2+ level, a sequential excitation of Fura-2 is performed at 340 nm and 380 nm; then, the emission signals resulting from each excitation wavelength are measured and the ratio of these signals is calculated. […] Samples were excited using a wavelength of 380 nm for 20 ms, followed by 340 nm for 100 ms, and fluorescence at 510 nm was recorded. Recorded data were then analyzed using NIS-Element AR Version 5.00.00 (Nikon Instruments, Melville, NY, USA). […]

Take `COc1c(O)cc2oc3cc(O)c(CC=C(C)C)c(O)c3c(=O)c2c1CC=C(C)C` [Alpha-mangostin]: the “Effect on spontaneous intracellular calcium increase” value is on record as “potently attenuated”.
